The record followed here is US7423054B2, “Therapeutic pyrazolo[3,4-b]pyridines and indazoles” (Warner Lambert Company LLC, priority 2004, dated 2008).

Test [1] deals with T1, human serotonin transporter (hSERT) (Homo sapiens, UniProt P31645).
T1 construct: expressed in transfected cells; host or cells: HEK-293 cells (membrane preparation)
Description: hSERT receptor binding ([125I]-RTI-55 displacement, membranes of transfected HEK-293 cells). To be noted: HEK-293 membranes, Ki from IC50 by Cheng-Prusoff, read-out: SERT Ki. As for the experimental part:
(§1) The ability of the compounds of the present invention to inhibit a norepinephrine transporter and/or a serotonin transporter can be determined using conventional radioligand receptor transport assays. The receptors can be heterologously expressed in cell lines and experiments conducted in membrane preparations from the cell lines that express a norepinephrine transporter and/or a serotonin transporter.
Cell pastes of HEK-293 cells transfected with a human serotonin transporter cDNA were prepared. The cell pastes were resuspended in 400 to 700 ml of Krebs-HEPES assay buffer (25 mM HEPES, 122 mM NaCl, 3 mM KCl, 1.2 mM MgSO4, 1.3 mM CaCl2, and 11 mM glucose, pH 7.4) with a Polytron homogenizer at Setting 7 for 30 seconds. Aliquots of membranes (˜2.5 mg/ml protein) were stored in liquid nitrogen until used.
Assays were set up in FlashPlates pre-coated with 0.1% PEI in a total volume of 250 μl containing: test compound (10^−5M to 10^−12M), cell membranes, and 50 pM [^125I]-RTI-55 (Perkin Elmer, NEX-272; specific activity 2200 Ci/mmol). The reaction was incubated and gently agitated for 90 minutes at room temperature, and terminated by removal of assay volume. Plates were covered, and bound [^125I]-RTI-55 was determined using a Wallac Trilux Beta Plate Counter. Test compounds were run in duplicate, and specific binding was defined as the difference between binding in the presence and absence of 10 μM citalopram.
Excel and GraphPad Prism software were used for data calculation and analysis. IC50 values were converted to Ki values using the Cheng-Prusoff equation. The Ki values (nM) for the hSERT are reported below in Table 11: […]

The target of test [2] is T2, human norepinephrine transporter (hNET) (Homo sapiens, UniProt P23975).
T2 construct: expressed in transfected cells; host or cells: HEK-293 cells (membrane preparation)
As to the kind of experiment: hNET receptor binding ([125I]-RTI-55 displacement, membranes of transfected HEK-293 cells). To be noted: HEK-293 membranes, Ki from IC50 by Cheng-Prusoff, read-out: NET Ki.
Text: as §1
Cell pastes of HEK-293 cells transfected with a human norepinephrine transporter cDNA were prepared. The cell pastes were resuspended in 400 to 700 ml of Krebs-HEPES assay buffer (25 mM HEPES, 122 mM NaCl, 3 mM KCl, 1.2 mM MgSO4, 1.3 mM CaCl2, and 11 mM glucose, pH 7.4) with a Polytron homogenizer at setting 7 for 30 seconds. Aliquots of membranes (5 mg/ml protein) were stored in liquid nitrogen until used.
The binding assay was set up in Beckman deep-well polypropylene plates with a total volume of 250 μl containing: test compound (10^−5M to 10^−12M), cell membranes, and 50 pM [^125I]-RTI-55 (Perkin Elmer, NEX-272; specific activity 2200 Ci/mmol). The reaction was incubated by gentle agitation for 90 minutes at room temperature and was terminated by filtration through Whatman GF/C filter plates using a Brandel 96-well plate harvester. Scintillation fluid (100 μl) was added to each well, and bound [^125I]-RTI-55 was determined using a Wallac Trilux Beta Plate Counter. Test compounds were run in duplicate, and specific binding was defined as the difference between binding in the presence and absence of 10 μM desipramine.
Excel and GraphPad Prism software were used for data calculation and analysis. IC50 values were converted to Ki values using the Cheng-Prusoff equation. The Ki values (nM) for the hNET are reported below in Table 11.

Counter-ions that a name gives are not always drawn.

Broadly, the Ki is the dissociation constant of the complex between target and ligand, obtained from inhibition or displacement.

T1 sequence (P31645 whole entry): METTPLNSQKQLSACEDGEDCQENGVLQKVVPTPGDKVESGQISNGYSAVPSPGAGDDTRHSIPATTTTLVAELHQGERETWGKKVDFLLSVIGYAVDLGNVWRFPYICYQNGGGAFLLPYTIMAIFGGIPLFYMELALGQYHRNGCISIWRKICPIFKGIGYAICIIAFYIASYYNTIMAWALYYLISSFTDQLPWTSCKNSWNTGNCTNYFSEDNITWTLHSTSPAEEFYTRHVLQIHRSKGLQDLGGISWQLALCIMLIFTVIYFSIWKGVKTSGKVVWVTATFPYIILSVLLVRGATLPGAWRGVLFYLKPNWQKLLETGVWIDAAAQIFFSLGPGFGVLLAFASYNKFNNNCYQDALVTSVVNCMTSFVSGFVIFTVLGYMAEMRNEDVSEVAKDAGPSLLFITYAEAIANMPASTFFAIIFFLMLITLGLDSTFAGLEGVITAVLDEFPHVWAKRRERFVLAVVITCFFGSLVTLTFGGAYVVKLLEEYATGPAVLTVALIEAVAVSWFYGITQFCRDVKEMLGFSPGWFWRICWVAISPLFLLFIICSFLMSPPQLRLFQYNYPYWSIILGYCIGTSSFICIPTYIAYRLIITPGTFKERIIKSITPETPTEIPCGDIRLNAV
T2 sequence (P23975 whole entry): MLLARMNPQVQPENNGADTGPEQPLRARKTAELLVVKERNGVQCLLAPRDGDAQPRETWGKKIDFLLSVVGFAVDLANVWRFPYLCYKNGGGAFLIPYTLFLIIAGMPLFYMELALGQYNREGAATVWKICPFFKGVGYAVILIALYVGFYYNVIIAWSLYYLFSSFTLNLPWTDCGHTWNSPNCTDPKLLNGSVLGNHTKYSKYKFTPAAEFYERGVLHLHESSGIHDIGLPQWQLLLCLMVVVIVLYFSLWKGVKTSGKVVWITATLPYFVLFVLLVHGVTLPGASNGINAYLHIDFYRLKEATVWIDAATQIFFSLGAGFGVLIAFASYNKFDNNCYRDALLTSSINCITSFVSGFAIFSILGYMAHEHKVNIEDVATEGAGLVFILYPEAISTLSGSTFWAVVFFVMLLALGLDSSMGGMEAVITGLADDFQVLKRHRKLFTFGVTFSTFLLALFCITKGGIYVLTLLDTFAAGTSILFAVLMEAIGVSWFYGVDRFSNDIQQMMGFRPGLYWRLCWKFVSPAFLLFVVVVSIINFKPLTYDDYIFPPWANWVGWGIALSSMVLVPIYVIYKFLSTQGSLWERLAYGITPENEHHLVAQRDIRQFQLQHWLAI

With `Fc1ccccc1-n1nc(OC[C@@H]2CCNC2)c2ccccc21` [Example 11, (R)-1-(2-Fluoro-phenyl)-3-(pyrrolidin-3-ylmethoxy)-1H-indazole hydrochloride], the inhibition constant Ki turned out to be 279 nM in test [1] and 14 nM in test [2].
The corresponding values for `Fc1ccccc1-n1nc(O[C@H]2CCCN2)c2ccccc21` [Example 12, (S)-(−)-1-(2-Fluorophenyl)-3-(pyrrolidin-2-yloxy)-1H-indazole hydrochloride] are 1010 nM and 12.5 nM.
Taken in the same sequence, the figures for `Fc1ccccc1-n1nc(O[C@@H]2CCCN2)c2ccccc21` [Example 13, (R)-(+)-1-(2-Fluorophenyl)-3-(pyrrolidin-2-yloxy)-1H-indazole maleate] were 5290 nM and 131 nM.
Consider `c1ccc(-n2nc(OC[C@@H]3CCCNC3)c3ccccc32)cc1` [Example 18, (R)-(+)-1-Phenyl-3-(piperidin-3-ylmethoxy)-1H-indazole hydrochloride], for which the results for the Ki in test [1] and in test [2] were 121 nM and 95.5 nM, respectively.
The corresponding values for `c1ccc(-n2nc(OC[C@H]3CCCNC3)c3ccccc32)cc1` [Example 19, (S)-(−)-1-Phenyl-3-(piperidin-3-ylmethoxy)-1H-indazole hydrochloride] are 486 nM and 5.43 nM.
Consider `c1ccc(-n2nc(OC[C@@H]3CNCCO3)c3ccccc32)cc1` [Example 21, (S)-(+)-3-(Morpholin-2-ylmethoxy)-1-phenyl-1H-indazole hydrochloride], for which the Ki in test [1] came to 1120 nM; in test [2] it was 12.5 nM.
Taken in the same sequence, the figures for `c1ccc(-n2nc(OC[C@H]3CCNC3)c3ccccc32)cc1` [Example 22, (S)-1-Phenyl-3-(pyrrolidin-3-ylmethoxy)-1H-indazole hydrochloride] were 68.2 nM and 25.7 nM.
The corresponding values for `Fc1ccc(-n2nc(OC[C@@H]3CNCCO3)c3ccccc32)cc1F` [Example 23, (S)-1-(3,4-Difluoro-phenyl)-3-(morpholin-2-ylmethoxy)-1H-indazole hydrochloride] are 1530 nM and 11.5 nM.
Take `Fc1cccc(F)c1-n1nc(OC[C@H]2CCCNC2)c2ccccc21` [Example 25, (S)-1-(2,6-Difluoro-phenyl)-3-(piperidin-3-ylmethoxy)-1H-indazole maleate]: the values for the Ki in test [1] and in test [2] were 670 nM and 3.2 nM, respectively.
As to `Fc1ccc(F)c(-n2nc(OC[C@@H]3CNCCO3)c3cc(F)ccc32)c1` [Example 26, (S)-1-(2,5-Difluoro-phenyl)-5-fluoro-3-(morpholin-2-ylmethoxy)-1H-indazole maleate], the results for the Ki in test [1] and in test [2] were 346 nM and 6.9 nM, respectively.
Consider `Fc1ccc(F)c(-n2nc(OC[C@@H]3CNCCO3)c3ccccc32)c1` [Example 28, (S)-(+)-1-(2,5-Difluorophenyl)-3-(morpholin-2-ylmethoxy)-1H-indazole maleate], for which the Ki in test [1] was found to be 640 nM; in test [2] it was 5.1 nM.
In the case of `Clc1cc(Cl)cc(-n2nc(OC3CCNCC3)c3ccccc32)c1` [Example 29, 1-(3,5-Dichloro-phenyl)-3-(piperidin-4-yloxy)-1H-indazole hydrochloride], the Ki in test [1] amounted to 342 nM; in test [2], 4050 nM.
Regarding `Fc1ccc(-n2nc(OC[C@H]3CCCNC3)c3ccccc32)cc1F` [Example 33, (S)-1-(3,4-Difluoro-phenyl)-3-(piperidin-3-ylmethoxy)-1H-indazole hydrochloride], the Ki in test [1] came to 198 nM; in test [2], 19.2 nM.
As to `Fc1ccc(-n2nc(OC3CCNCC3)c3ccccc32)cc1F` [Example 34, 1-(3,4-Difluoro-phenyl)-3-(piperidin-4-yloxy)-1H-indazole hydrochloride], the Ki in test [1] worked out at 81 nM; in test [2] it was 30 nM.
In the case of `Fc1ccc(-n2nc(OC[C@H]3CCNC3)c3ccccc32)cc1F` [Example 35, (S)-1-(3,4-Difluoro-phenyl)-3-(pyrrolidin-3-ylmethoxy)-1H-indazole hydrochloride], the inhibition constant Ki in test [1] came out at 82.6 nM; in test [2], 24 nM.
Consider `Fc1cccc(F)c1-n1nc(OC2CCNCC2)c2ccccc21` [Example 36, 1-(2,6-Difluoro-phenyl)-3-(piperidin-4-yloxy)-1H-indazole hydrochloride], for which the Ki in test [1] turned out to be 82.7 nM; in test [2], 5.16 nM.
As to `Fc1cccc(F)c1-n1nc(OC[C@H]2CCNC2)c2ccccc21` [Example 37, (S)-1-(2,6-Difluoro-phenyl)-3-(pyrrolidin-3-ylmethoxy)-1H-indazole hydrochloride], the figures for the inhibitory constant (Ki) in test [1] and in test [2] were 105 nM and 6.05 nM, respectively.
For the molecule `Fc1ccc(F)c(-n2nc(OC[C@H]3CCCNC3)c3ccccc32)c1` [Example 38, (S)-1-(2,5-Difluoro-phenyl)-3-(piperidin-3-ylmethoxy)-1H-indazole hydrochloride], the Ki in test [1] was 199 nM; in test [2], 6.09 nM.
Take `Fc1ccc(F)c(-n2nc(OC3CCNCC3)c3cc(F)ccc32)c1` [Example 39, 1-(2,5-Difluoro-phenyl)-5-fluoro-3-(piperidin-4-yloxy)-1H-indazole hydrochloride]: the Ki in test [1] came out at 34.4 nM; in test [2] it was 9.57 nM.
For the molecule `Fc1ccc(F)c(-n2nc(OC[C@@H]3CCNC3)c3cc(F)ccc32)c1` [Example 40, (R)-1-(2,5-Difluoro-phenyl)-5-fluoro-3-(pyrrolidin-3-ylmethoxy)-1H-indazole hydrochloride], the Ki in test [1] amounted to 30.8 nM; in test [2], 5.02 nM.
With `Clc1ccc(-n2nc(OC3CCNCC3)c3ccccc32)cc1` [Example 41, 1-(4-Chloro-phenyl)-3-(piperidin-4-yloxy)-1H-indazole hydrochloride], the Ki in test [1] was 79.7 nM; in test [2], 299 nM.
The corresponding values for `c1ccc(-n2nc(OC[C@H]3CCCNC3)c3ccccc32)nc1` [Example 44, (S)-(−)-3-(Piperidin-3-ylmethoxy)-1-pyridin-2-yl-1H-indazole maleate] are 365 nM and 100 nM.
The corresponding values for `Fc1ccc2c(c1)c(OC[C@@H]1CNCCO1)nn2-c1ccccc1F` [Example 46, (S)-(+)-5-Fluoro-1-(2-fluorophenyl)-3-(morpholin-2-ylmethoxy)-1H-indazole maleate] are 413 nM and 5.7 nM.
For `Fc1ccc(-n2nc(OC[C@H]3CCCNC3)c3cc(F)ccc32)c(F)c1` [Example 49, (S)-(−)-1-(2,4-Difluorophenyl)-5-fluoro-3-(piperidin-3-ylmethoxy)-1H-indazole hydrochloride], the Ki in test [1] came to 20.5 nM; in test [2], 98.5 nM.
Taken in the same sequence, the figures for `Fc1ccc2c(c1)c(OC[C@@H]1CNCCO1)nn2-c1c(F)cccc1F` [Example 50, (S)-1-(2,6-Difluoro-phenyl)-5-fluoro-3-(morpholin-2-ylmethoxy)-1H-indazole hydrochloride] were 1140 nM and 5.2 nM.
Taken in the same sequence, the figures for `CC1(COc2nn(-c3ccccc3F)c3ccc(F)cc23)CCCNC1` (stereo not shown) [Example 52] were 45.4 nM and 35.7 nM.
On to `CC1(COc2nn(-c3ccccc3F)c3ccccc23)CCCNC1` (stereo not shown) [Example 53, 1-(2-Fluoro-phenyl)-3-(3-methyl-piperidin-3-ylmethoxy)-1H-indazole hydrogen chloride], for which the Ki in test [1] was 146 nM; in test [2] it was 54.1 nM.
The corresponding values for `CC1(COc2nn(-c3ccccc3F)c3ccc(F)cc23)CCNCC1` [Example 54, 5-Fluoro-1-(2-fluoro-phenyl)-3-(4-methyl-piperdin-4-ylmethoxy)-1H-indazole hydrogen chloride] are 28.5 nM and 274 nM.
Turning to `Fc1ccc2c(c1)c(OC[C@@H]1CCCNC1)nn2-c1ccccc1F` [Example 55, (R)-5-Fluoro-1-(2-fluoro-phenyl)-3-(piperidin-3-ylmethoxy)-1H-indazole maleate], the inhibitory constant (Ki) in test [1] worked out at 126 nM; in test [2] it was 71.2 nM.
